In ChEMBL document CHEMBL5380790 (J Med Chem, 2023):
The source made the active and inactive calls. The calls are words filed in the database; no cut-off is given here.

Legend:
[1] = Octanol-water distribution coefficient, logD of the compound at pH 7.4; assay type: physicochemical
[2] = Plasma clearance in CD-1 mouse at 0.2 mg/kg, iv and measured upto 24 hrs; assay type: ADME, organism-based
[3] = Plasma clearance in Beagle dog at 0.2 mg/kg, iv and measured upto 24 hrs; assay type: ADME, organism-based, Canis lupus familiaris
[4] = Oral bioavailability in CD-1 mouse at 10 mg/kg and measured upto 24 hrs; assay type: ADME, organism-based; conditions: in vivo
[5] = Efflux ratio of apparent permeability from basolateral to apical side over apical to basolateral side in human Caco-2 cells at 1 uM and measured after 2 hrs by LC-MS/MS analysis; assay type: ADME, cell-based
[6] = target: T1, Macrophage colony-stimulating factor 1 receptor (Homo sapiens, UniProt P07333); assay: Inhibition of CSF1R (unknown origin) at 1 uM using 33P-ATP as substrate incubated for 120 mins by radiometric kinase assay
T1 sequence (P07333 whole entry): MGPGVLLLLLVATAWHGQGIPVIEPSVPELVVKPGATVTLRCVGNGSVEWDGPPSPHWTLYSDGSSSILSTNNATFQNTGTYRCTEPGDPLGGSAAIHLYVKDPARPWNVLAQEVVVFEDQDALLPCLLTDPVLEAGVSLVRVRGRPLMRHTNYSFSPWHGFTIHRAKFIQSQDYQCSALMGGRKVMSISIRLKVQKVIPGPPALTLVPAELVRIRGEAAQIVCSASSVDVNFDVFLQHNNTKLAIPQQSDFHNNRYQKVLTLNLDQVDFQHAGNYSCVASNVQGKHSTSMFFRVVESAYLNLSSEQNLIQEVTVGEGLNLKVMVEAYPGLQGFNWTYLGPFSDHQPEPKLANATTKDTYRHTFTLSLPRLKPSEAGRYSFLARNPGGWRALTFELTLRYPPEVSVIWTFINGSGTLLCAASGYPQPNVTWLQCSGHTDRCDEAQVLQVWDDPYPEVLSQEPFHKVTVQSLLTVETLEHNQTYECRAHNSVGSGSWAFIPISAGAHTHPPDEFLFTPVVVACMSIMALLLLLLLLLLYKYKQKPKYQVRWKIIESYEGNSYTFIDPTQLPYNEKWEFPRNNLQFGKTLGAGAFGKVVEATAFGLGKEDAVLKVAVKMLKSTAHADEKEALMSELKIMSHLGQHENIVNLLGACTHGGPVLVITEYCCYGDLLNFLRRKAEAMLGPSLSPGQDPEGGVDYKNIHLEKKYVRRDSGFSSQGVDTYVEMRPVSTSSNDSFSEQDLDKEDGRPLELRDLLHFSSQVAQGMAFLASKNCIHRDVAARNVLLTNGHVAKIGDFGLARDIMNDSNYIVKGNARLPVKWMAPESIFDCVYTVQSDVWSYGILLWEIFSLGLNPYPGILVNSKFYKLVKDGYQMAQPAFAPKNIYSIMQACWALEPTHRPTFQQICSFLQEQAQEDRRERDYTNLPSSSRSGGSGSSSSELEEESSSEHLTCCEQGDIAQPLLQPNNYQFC

[7] = target: Mast/stem cell growth factor receptor Kit (Homo sapiens, UniProt P10721); assay type: cell-based; conditions: gist430
[8] = target: Receptor-type tyrosine-protein kinase FLT3 (Homo sapiens) (UniProt P36888); assay: Inhibition of FLT3 (unknown origin) at 1 uM using 33P-ATP as substrate incubated for 120 mins by radiometric kinase assay
Chain of Receptor-type tyrosine-protein kinase FLT3 (Homo sapiens) (P36888 whole entry): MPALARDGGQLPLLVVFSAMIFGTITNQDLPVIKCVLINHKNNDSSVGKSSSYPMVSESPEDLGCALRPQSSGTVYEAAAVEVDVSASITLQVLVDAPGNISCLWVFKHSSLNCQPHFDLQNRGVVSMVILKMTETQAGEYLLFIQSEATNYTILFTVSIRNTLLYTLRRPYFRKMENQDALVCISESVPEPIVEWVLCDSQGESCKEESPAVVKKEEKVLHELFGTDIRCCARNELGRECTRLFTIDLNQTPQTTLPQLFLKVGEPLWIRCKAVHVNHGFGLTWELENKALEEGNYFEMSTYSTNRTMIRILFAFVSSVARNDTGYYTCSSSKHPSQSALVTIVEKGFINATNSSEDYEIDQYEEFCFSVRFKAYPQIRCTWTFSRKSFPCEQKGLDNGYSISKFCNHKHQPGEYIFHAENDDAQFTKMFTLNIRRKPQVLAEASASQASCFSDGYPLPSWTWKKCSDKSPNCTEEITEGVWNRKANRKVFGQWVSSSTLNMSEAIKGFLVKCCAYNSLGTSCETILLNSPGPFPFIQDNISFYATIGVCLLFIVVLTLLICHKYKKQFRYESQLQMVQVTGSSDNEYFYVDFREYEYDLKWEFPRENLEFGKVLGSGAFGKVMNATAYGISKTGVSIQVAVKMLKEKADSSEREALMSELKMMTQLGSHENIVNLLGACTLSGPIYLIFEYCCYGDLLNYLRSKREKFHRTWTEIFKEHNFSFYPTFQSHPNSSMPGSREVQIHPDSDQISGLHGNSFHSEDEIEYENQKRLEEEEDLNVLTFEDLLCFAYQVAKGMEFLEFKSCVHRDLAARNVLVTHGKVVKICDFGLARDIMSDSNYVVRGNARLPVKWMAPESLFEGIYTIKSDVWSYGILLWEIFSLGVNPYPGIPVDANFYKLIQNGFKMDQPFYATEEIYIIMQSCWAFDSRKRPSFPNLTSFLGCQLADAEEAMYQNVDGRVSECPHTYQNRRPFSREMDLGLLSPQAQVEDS

[9] = Volume of distribution at steady state in Cynomolgus monkey at 0.2 mg/kg, iv and measured upto 24 hrs; assay type: ADME, organism-based, Macaca fascicularis; conditions: in vivo, read-out: Vdss
[10] = target: T1, Macrophage colony-stimulating factor 1 receptor; assay: Inhibition of CSF1R (unknown origin) using 33P-ATP as substrate incubated for 120 mins by radiometric kinase assay
[11] = target: Tyrosine-protein kinase Lck (Homo sapiens, UniProt P06239); assay: Inhibition of LCK (unknown origin) at 1 uM using 33P-ATP as substrate incubated for 120 mins by radiometric kinase assay
Chain of Tyrosine-protein kinase Lck (P06239 2-509 limits assumed): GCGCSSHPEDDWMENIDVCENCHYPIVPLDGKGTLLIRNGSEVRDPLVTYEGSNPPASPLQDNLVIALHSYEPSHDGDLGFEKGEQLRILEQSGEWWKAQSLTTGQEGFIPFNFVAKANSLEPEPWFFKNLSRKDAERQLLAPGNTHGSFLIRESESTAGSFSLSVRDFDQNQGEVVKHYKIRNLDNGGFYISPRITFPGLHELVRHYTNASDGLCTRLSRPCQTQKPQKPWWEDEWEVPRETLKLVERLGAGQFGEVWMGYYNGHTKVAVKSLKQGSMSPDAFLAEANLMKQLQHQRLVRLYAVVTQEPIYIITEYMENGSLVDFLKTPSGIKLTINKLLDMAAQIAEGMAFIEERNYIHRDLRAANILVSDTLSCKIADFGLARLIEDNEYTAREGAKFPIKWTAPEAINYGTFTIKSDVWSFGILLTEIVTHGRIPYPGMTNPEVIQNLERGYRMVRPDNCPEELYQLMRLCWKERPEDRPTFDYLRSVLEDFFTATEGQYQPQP

[12] = Volume of distribution at steady state in Beagle dog at 0.2 mg/kg, iv and measured upto 24 hrs; assay type: ADME, organism-based, Canis lupus familiaris; conditions: in vivo, read-out: Vdss
[13] = tested on: Mast/stem cell growth factor receptor Kit (Homo sapiens), P10721 [UNDEFINED MUTATION]; assay: Inhibition of recombinant human KIT (557 to 558 residues) activating deletion mutant in exon 11 using polyGT and ATP as substrate preincubated for 20 mins followed by substrate addition and measured after 240 mins by FRET assay; conditions: time 260.0 min
Chain of Mast/stem cell growth factor receptor Kit (Homo sapiens), P10721 [UNDEFINED MUTATION] (P10721 whole entry, looked up, stated change not applied, the tested form may be a part): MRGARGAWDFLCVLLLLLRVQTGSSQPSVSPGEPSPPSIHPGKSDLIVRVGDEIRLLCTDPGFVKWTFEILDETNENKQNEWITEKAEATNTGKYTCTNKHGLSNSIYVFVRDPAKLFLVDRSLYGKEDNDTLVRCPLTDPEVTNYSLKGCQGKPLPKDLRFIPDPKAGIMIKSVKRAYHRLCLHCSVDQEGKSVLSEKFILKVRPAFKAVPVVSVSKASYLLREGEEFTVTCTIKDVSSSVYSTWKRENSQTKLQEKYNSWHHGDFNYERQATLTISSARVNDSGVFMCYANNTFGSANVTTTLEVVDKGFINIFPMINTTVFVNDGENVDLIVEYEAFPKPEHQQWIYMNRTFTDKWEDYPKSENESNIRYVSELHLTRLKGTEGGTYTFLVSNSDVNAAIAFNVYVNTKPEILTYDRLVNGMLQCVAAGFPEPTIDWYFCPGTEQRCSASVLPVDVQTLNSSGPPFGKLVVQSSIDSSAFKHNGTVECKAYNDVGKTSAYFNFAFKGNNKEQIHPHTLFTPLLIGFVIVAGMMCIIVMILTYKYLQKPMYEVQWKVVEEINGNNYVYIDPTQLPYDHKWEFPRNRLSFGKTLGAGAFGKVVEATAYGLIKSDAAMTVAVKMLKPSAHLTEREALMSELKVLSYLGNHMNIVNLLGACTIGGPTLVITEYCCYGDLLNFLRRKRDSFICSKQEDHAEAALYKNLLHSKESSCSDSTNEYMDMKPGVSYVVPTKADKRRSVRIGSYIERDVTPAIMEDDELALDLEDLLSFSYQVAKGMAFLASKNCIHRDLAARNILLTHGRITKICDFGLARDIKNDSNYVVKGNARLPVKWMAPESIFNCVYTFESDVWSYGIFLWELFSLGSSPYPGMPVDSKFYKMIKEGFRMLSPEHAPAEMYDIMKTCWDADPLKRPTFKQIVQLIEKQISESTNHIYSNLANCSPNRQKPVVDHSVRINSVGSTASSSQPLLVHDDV

[14] = Volume of distribution at steady state in Han Wistar rat at 0.2 mg/kg, iv and measured upto 24 hrs; assay type: ADME, organism-based; conditions: in vivo, read-out: Vdss
[15] = target: Mast/stem cell growth factor receptor Kit (Homo sapiens, UniProt P10721, DELTA560/V654A); assay type: cell-based, GIST-430/654
Chain of Mast/stem cell growth factor receptor Kit (Homo sapiens, UniProt P10721, DELTA560/V654A) (P10721 whole entry, looked up, stated change not applied): as the sequence (P10721 whole entry, looked up, stated change not applied, the tested form may be a part) above

[16] = Apparent passive permeability of compound in human Caco-2 cells at 1 uM and measured after 2 hrs by LC-MS/MS analysis; assay type: ADME, cell-based
[17] = Half life in Han Wistar rat at 0.2 mg/kg, iv and measured upto 24 hrs; assay type: ADME, organism-based; conditions: in vivo
[18] = target: Platelet-derived growth factor receptor beta (Homo sapiens, UniProt P09619); assay: Inhibition of PDGFRB (unknown origin) at 1 uM using 33P-ATP as substrate incubated for 120 mins by radiometric kinase assay
Chain of Platelet-derived growth factor receptor beta (P09619 whole entry): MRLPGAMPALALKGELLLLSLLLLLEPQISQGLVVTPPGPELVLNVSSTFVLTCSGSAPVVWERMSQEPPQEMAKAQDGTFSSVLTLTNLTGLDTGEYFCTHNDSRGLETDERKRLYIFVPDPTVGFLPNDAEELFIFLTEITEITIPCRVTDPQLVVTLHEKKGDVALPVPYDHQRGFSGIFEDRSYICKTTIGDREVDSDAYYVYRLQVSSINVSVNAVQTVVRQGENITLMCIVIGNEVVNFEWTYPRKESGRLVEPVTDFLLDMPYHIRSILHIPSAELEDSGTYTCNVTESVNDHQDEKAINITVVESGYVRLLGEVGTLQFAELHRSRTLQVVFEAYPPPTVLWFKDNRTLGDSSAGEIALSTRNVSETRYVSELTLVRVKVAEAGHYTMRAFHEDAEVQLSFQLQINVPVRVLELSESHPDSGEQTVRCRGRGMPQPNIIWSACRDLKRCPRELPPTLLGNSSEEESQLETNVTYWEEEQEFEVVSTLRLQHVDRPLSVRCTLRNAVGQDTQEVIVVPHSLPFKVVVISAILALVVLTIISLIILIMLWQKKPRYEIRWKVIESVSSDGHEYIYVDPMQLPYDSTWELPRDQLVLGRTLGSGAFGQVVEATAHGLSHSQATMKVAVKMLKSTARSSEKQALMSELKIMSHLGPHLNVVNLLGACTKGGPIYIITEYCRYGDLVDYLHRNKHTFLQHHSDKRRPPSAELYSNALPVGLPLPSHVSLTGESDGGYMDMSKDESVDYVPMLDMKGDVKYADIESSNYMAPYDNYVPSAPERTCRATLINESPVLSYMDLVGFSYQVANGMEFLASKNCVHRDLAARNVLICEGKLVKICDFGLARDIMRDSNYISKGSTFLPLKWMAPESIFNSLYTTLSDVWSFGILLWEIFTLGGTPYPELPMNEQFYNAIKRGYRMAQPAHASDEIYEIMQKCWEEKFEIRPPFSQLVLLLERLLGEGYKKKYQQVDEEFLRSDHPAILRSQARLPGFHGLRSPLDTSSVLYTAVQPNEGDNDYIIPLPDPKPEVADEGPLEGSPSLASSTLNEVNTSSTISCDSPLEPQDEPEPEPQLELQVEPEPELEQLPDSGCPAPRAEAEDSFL

GIST430 = assay type: functional, cell-based; conditions: Homo sapiens, dose 10.0 µM
[19] = target: Receptor-type tyrosine-protein kinase FLT3 (Homo sapiens) (UniProt P36888); assay: Binding affinity to human FLT3 in human HEK293 cells at 1 uM by NanoBRET assay; assay type: cell-based

logD [1]: 2.6 | clearance [2]: 18.3 mL/min/kg | clearance [3]: 36.7 mL/min/kg | bioavailability [4]: 46% | efflux ratio at 2 h, 1 µM [5]: 14 | inhibition [6]: > 80% | IC50 [7]: 4 nM | inhibition [8]: > 80% | Vd [9]: 12.4 L/kg | IC50 [10]: 5.5 nM | inhibition [11]: > 80% | Vd [12]: 34.6 L/kg | inhibition [13]: Active | Vd [14]: 23.2 L/kg | IC50 [15]: 48 nM | Papp at 2 h, 1 µM [16]: 5.7 ×10⁻⁶ cm/s | half-life [17]: 408 min | inhibition [18]: > 80% | Activity [19]: 45%
Structure (SMILES): Cn1cc(-c2ccc(CNc3cc(-c4cnc5cc(OCCCN6CCCC6)ccn45)ncn3)cc2)cn1 [IDRX-42]
Activity (GIST430): inactive
